The source of these data is paper PMC10058238 (Science Advances, 2023).

Holding throughout (format): biochemical
Assay [1] addresses T1, AtSPT-ORM1 complex (LCB1, LCB2a, SPTssa, ORM1) (Arabidopsis thaliana, UniProt Q94IB8+Q9C5I0+Q9LSZ9, Q9C5I0:N17A).
T1 construct: full-length codon-optimized cDNAs; N-terminal Flag on SPTssa, other chains untagged; HEK293F, GDN; dimer of 1:1:1:1 protomers; endogenous ceramide copurifies; with Long chain base biosynthesis protein 1; Serine palmitoyltransferase small subunit A
Description: SPT activity, DTNB detection of CoA-SH release, […] nm.

Assay [2] has as its target T2, AtSPT-ORM1 complex (LCB1, LCB2a, SPTssa, ORM1) (Arabidopsis thaliana, UniProt Q94IB8+Q9C5I0+Q9LSZ9, Q9C5I0:W20R).
T2 construct: full-length codon-optimized cDNAs; N-terminal Flag on SPTssa, other chains untagged; HEK293F, GDN; dimer of 1:1:1:1 protomers; endogenous ceramide copurifies; with Long chain base biosynthesis protein 1; Serine palmitoyltransferase small subunit A
The description is as above. The settings on record: saturating 100 mM L-serine, 100 μM palmitoyl-CoA, 25 μM PLP, pH 7.5, 30 °C; ceramide site.

For assay [3], the target named is T3, AtSPT-ORM1 complex (LCB1, LCB2a, SPTssa, ORM1) (Arabidopsis thaliana, UniProt Q94IB8+Q9C5I0+Q9LSZ9, Q9C5I0:DEL2-8).
T3 construct: full-length codon-optimized cDNAs; N-terminal Flag on SPTssa, other chains untagged; HEK293F, GDN; dimer of 1:1:1:1 protomers; endogenous ceramide copurifies; with Long chain base biosynthesis protein 1; Serine palmitoyltransferase small subunit A
The description is as above.

The target in assay [4] is T4, AtSPT-ORM1 complex (LCB1, LCB2a, SPTssa, ORM1) (Arabidopsis thaliana, UniProt Q94IB8+Q9C5I0+Q9LSZ9, Q9C5I0:W88R).
T4 construct: full-length codon-optimized cDNAs; N-terminal Flag on SPTssa, other chains untagged; HEK293F, GDN; dimer of 1:1:1:1 protomers; endogenous ceramide copurifies; with Long chain base biosynthesis protein 1; Serine palmitoyltransferase small subunit A
The description is as above. The settings on record: saturating 100 mM L-serine, 100 μM palmitoyl-CoA, 25 μM PLP, pH 7.5, 30 °C; ceramide site.

Assay [5] deals with T5, AtSPT-ORM1 complex (LCB1, LCB2a, SPTssa, ORM1) (Arabidopsis thaliana, UniProt Q94IB8+Q9C5I0+Q9LSZ9, Q9C5I0:N17A/Q9C5I0:S67R).
T5 construct: full-length codon-optimized cDNAs; N-terminal Flag on SPTssa, other chains untagged; HEK293F, GDN; dimer of 1:1:1:1 protomers; endogenous ceramide copurifies; with Long chain base biosynthesis protein 1; Serine palmitoyltransferase small subunit A
The description is as above. The settings on record: saturating 100 mM L-serine, 100 μM palmitoyl-CoA, 25 μM PLP, pH 7.5, 30 °C; ceramide site.

Assay [6] deals with T6, AtSPT-ORM1 complex (LCB1, LCB2a, SPTssa, ORM1) (Arabidopsis thaliana, UniProt Q94IB8+Q9C5I0+Q9LSZ9, Q9C5I0:DEL2-14).
T6 construct: full-length codon-optimized cDNAs; N-terminal Flag on SPTssa, other chains untagged; HEK293F, GDN; dimer of 1:1:1:1 protomers; endogenous ceramide copurifies; with Long chain base biosynthesis protein 1; Serine palmitoyltransferase small subunit A
Described as above. The conditions noted are these: saturating 100 mM L-serine, 100 μM palmitoyl-CoA, 25 μM PLP, pH 7.5, 30 °C; ceramide site.

For assay [7], the target named is T7, AtSPT-ORM1 complex (LCB1, LCB2a, SPTssa, ORM1) (Arabidopsis thaliana, UniProt Q94IB8+Q9C5I0+Q9LSZ9).
T7 construct: full-length codon-optimized cDNAs; N-terminal Flag on SPTssa, other chains untagged; HEK293F, GDN; dimer of 1:1:1:1 protomers; endogenous ceramide copurifies; with Long chain base biosynthesis protein 1; Serine palmitoyltransferase small subunit A
The description is as above.

Assay [8] deals with T8, AtSPT-ORM1 complex (LCB1, LCB2a, SPTssa, ORM1) (Arabidopsis thaliana, UniProt Q94IB8+Q9C5I0+Q9LSZ9, Q9LSZ9:DEL2-5).
T8 construct: full-length codon-optimized cDNAs; N-terminal Flag on SPTssa, other chains untagged; HEK293F, GDN; dimer of 1:1:1:1 protomers; endogenous ceramide copurifies; with Long chain base biosynthesis protein 1; Serine palmitoyltransferase small subunit A
The assay is described as above.

The target in assay [9] is T9, AtSPT-ORM1 complex (LCB1, LCB2a, SPTssa, ORM1) (Arabidopsis thaliana, UniProt Q94IB8+Q9C5I0+Q9LSZ9, Q9C5I0:S67R).
T9 construct: full-length codon-optimized cDNAs; N-terminal Flag on SPTssa, other chains untagged; HEK293F, GDN; dimer of 1:1:1:1 protomers; endogenous ceramide copurifies; with Long chain base biosynthesis protein 1; Serine palmitoyltransferase small subunit A
The description is as above.

The target in assay [10] is T10, AtSPT complex (LCB1, LCB2a, SPTssa) (Arabidopsis thaliana, UniProt Q94IB8+Q9LSZ9).
T10 construct: full-length codon-optimized cDNAs; N-terminal Flag on SPTssa, other chains untagged; HEK293F, GDN; without ORM1; with Serine palmitoyltransferase small subunit A
T10 sequence (Q9LSZ9 1-489): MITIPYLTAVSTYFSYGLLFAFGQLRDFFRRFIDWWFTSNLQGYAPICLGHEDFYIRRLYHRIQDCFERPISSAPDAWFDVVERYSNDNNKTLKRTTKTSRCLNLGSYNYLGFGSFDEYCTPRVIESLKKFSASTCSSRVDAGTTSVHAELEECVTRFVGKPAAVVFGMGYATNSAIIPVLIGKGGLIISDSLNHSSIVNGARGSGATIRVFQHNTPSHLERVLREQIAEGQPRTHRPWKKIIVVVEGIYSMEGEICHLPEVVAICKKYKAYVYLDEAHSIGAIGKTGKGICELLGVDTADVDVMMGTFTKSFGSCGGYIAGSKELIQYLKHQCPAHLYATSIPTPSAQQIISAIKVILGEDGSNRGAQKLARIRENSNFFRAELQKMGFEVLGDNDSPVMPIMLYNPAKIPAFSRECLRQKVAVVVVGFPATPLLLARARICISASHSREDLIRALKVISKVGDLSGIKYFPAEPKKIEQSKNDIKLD
T10 sequence (Q94IB8 1-482): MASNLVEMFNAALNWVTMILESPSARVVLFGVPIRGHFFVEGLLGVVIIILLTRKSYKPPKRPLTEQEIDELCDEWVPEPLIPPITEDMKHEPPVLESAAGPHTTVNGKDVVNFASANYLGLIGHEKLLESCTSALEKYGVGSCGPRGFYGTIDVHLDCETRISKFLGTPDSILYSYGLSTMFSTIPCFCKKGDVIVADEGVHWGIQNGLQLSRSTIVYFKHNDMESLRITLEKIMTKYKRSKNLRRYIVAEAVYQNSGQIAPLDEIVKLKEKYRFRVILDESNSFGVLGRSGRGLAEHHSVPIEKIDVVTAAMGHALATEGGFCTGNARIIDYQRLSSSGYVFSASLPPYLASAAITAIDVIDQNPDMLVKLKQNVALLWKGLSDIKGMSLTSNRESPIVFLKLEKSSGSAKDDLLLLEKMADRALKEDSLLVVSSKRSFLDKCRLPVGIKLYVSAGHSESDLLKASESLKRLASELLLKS
T10 sequence (A8MSB8 1-56 partner): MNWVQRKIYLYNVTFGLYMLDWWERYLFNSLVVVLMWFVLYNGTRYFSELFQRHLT
Described as above. The settings on record: 100 mM L-serine, 100 μM palmitoyl-CoA, 25 μM PLP, pH 7.5, 30 °C; active site in LCB2a/LCB1.

In assay [11] the target is T7, AtSPT-ORM1 complex (LCB1, LCB2a, SPTssa, ORM1). The description is as above. The settings on record: 100 mM L-serine, 100 μM palmitoyl-CoA, 25 μM PLP, pH 7.5, 30 °C; active site in LCB2a/LCB1.
Assay [12] concerns the target T6, AtSPT-ORM1 complex (LCB1, LCB2a, SPTssa, ORM1). Description: SPT activity, DTNB detection of CoA-SH release, […] nm; sigmoidal fit. The conditions noted are these: 100 mM L-serine, 25 μM PLP, pH 7.5, 30 °C; active site in LCB2a/LCB1.
Assay [13] addresses T1, AtSPT-ORM1 complex (LCB1, LCB2a, SPTssa, ORM1). Described as above. The settings on record: 100 mM L-serine, 25 μM PLP, pH 7.5, 30 °C; active site in LCB2a/LCB1.

T7 sequence (Q9C5I0 1-157, one chain of several): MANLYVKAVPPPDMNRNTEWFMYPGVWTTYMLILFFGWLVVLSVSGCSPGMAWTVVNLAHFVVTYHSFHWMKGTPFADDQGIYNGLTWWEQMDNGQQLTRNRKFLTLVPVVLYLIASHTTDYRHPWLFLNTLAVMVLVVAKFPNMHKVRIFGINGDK
T6 sequence (Q9C5I0 entry or part of it DEL2-14, one chain of several): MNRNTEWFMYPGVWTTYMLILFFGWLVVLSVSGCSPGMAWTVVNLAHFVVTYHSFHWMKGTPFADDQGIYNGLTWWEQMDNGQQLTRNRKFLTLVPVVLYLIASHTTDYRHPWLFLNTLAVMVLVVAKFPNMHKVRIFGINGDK
T1 sequence (Q9C5I0 1-157 N17A, one chain of several): as the sequence (Q9C5I0 1-157, one chain of several) above, with N17A counted along it
T8 sequence (Q9LSZ9 with tags, fused parts or gaps DEL2-5, one chain of several): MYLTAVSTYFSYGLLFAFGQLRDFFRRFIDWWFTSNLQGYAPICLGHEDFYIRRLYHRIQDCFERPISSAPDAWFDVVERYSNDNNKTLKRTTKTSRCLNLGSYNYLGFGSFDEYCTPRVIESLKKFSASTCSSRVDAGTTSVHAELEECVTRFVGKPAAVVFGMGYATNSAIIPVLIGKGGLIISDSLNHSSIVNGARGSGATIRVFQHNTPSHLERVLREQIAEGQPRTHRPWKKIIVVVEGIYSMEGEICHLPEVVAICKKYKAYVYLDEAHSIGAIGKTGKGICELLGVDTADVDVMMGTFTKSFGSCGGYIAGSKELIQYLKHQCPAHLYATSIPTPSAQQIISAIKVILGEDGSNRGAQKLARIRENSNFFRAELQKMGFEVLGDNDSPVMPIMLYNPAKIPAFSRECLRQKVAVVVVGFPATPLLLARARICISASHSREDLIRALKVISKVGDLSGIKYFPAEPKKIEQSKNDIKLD
T8 sequence (Q9C5I0 1-157, stated change not applied, one chain of several): as the sequence (Q9C5I0 1-157, one chain of several) above
T4 sequence (Q9C5I0 1-157 W88R, one chain of several): as the sequence (Q9C5I0 1-157, one chain of several) above, with W88R counted along it
T2 sequence (Q9C5I0 1-157 W20R, one chain of several): as the sequence (Q9C5I0 1-157, one chain of several) above, with W20R counted along it
T9 sequence (Q9C5I0 1-157 S67R, one chain of several): as the sequence (Q9C5I0 1-157, one chain of several) above, with S67R counted along it
T5 sequence (Q9C5I0 1-157 N17A/S67R, one chain of several): as the sequence (Q9C5I0 1-157, one chain of several) above, with N17A, S67R counted along it
T3 sequence (Q9C5I0 entry or part of it DEL2-8, one chain of several): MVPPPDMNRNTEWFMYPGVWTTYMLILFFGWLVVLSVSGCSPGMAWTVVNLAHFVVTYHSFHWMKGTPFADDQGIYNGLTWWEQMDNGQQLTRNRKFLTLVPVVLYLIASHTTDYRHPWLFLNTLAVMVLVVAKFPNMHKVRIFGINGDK

The IC50 is the concentration that gives 50% inhibition. Read a low IC50 as greater potency. As to `CCCCCCCCCCCCCC[C@@H](O)[C@@H](O)[C@H](CO)NC(=O)CCCCC` [C6-phytoceramide], the IC50 in assay [1] turned out to be 1680 nM; in assay [3], 1280 nM; in assay [7] it was 320 nM; in assay [8], 990 nM; in [9], 1260 nM. Also, the “SPT activity, DTNB detection of CoA-SH release, 412 nm” value in assay [2] is given as “ORM1-W20R or ORM1-W88R mutation also virtually abolished the inhibitory effect of C6-phytoceramide”; in assay [4], “ORM1-W20R or ORM1-W88R mutation also virtually abolished the inhibitory effect of C6-phytoceramide”; in assay [5], “ORM1-N17A/S67R double mutation nearly eliminated the inhibitory effect of C6-phytoceramide”; in assay [6], “basically eliminated the inhibitory effect of C6-phytoceramide”.
On to `CCCCCCC(=O)CCCCCC/C=C/C[C@@H](O)[C@H](O)[C@@](N)(CO)C(=O)O` [myriocin], for which the “inhibition at 10 μM” value in [10] and in assay [11] was “can be repressed by a potent SPT-specific inhibitor myriocin” in each case.
`CCCCCCCCCCCCCCCC(=O)SCCNC(=O)CCNC(=O)[C@H](O)C(C)(C)COP(=O)(O)OP(=O)(O)OC[C@H]1O[C@@H](n2cnc3c(N)ncnc32)[C@H](O)[C@@H]1OP(=O)(O)O` [palmitoyl-CoA]: the Khalf entry is reported as “the Khalf value of the AtSPT-ORM1 (ORM1-ΔN14) variant toward palmitoyl-CoA was much lower” in assay [12] and “the Khalf value of the variant toward palmitoyl-CoA was nearly seven times as high” in [13].
`CCCCCCCCCCCCC/C=C/[C@@H](O)[C@H](CO)NC(=O)CCCCC` [C6-ceramide]: in [7], 3500 nM corresponded to half-maximal inhibition (IC50).
